Measured values reported in patent US20230365959A1, “METHOD FOR IMPROVING THE STABILITY OF A COMPOSITION COMPRISING A FLAVIN-DEPENDENT LACTATE DEHYDROGENASE” (KIKKOMAN CORPORATION, priority 2020, published 2023).

Key:
Format in all cases: biochemical
[1] = test system: lactate dehydrogenase from Pichia kudriavzevii (PkLDH); assay: Thermal stability of PkLDH (residual activity ratio after heat treatment, potassium phosphate buffer); conditions: PkLDH 2 U/mL
Procedure: Thermal stability of LDH can be evaluated by heating LDH at a given temperature for a given time and comparing the activity thereof before and after heating. […] The LDH activity of an LDH solution which is allowed to stand still on ice without heating is taken as 100 and the LDH activity after heating is calculated and, the residual activity ratio (ratio of remaining activity) (%) can be determined.
More specifically, the residual activity ratio (%) can be obtained by measuring LDH activity value (a) of a solution before heat treatment or before long-term storage and LDH activity value (b) of a solution after heat treatment or after long-term storage and calculating ((b)/(a)×100).
Using the purified PkLDH preparation obtained above, the residual activity ratio (%) in the presence and absence of an LDH stabilizer were compared in accordance with the LDH thermal stability evaluation method mentioned previously, and in this manner, a stabilizer was searched.
(§1) The thermal stability of LDH was evaluated by heating LDH at a given temperature for a given time and comparing the activities before and after heating. […] Further, LDH activity of an LDH solution allowed to stand still on ice without any heat treatment was measured. Based on the activity of this case without any heat treatment taken as 100, the activities of LDH solutions after heat treatment were calculated to determine the residual activity ratio (%). More specifically, the residual activity ratio (%) can be obtained by measuring LDH activity value (a) of a solution before heat treatment or before long-term storage, and LDH activity value (b) of a solution after heat treatment or after long-term storage, and then, calculating ((b)/(a)×100).
The degree of LDH stability improving effect of each of the various added compounds was evaluated by preparing an LDH solution by allowing LDH to coexist with each of the various compounds, subjecting the solution to a heat treatment and determining the residual activity ratio (%) of the solution, and evaluating the residual activity (%) by mutually comparing the cases between compounds or comparing the case to a case where no compound was added.
(§2) The activity of LDH was determined in accordance with the following procedure. […] Subsequently, a 30 mM PMS solution (50 μL) and an enzyme sample solution (50 μL) were added to the mixture to initiate a reaction. Absorbance at 520 nm was measured at the time of initiation of the reaction and over time and, the degree of reduction (ΔA520) in absorbance per minute as the enzymatic reaction progresses was obtained and LDH activity was calculated in accordance with the following Mathematical formula 2. Here, LDH activity is expressed by an enzyme (LDH) unit, and 1U is defined as the amount of the enzyme that can reduce 1 μmol DCIP per minute at 37° C. in the presence of 10 mM L-lactate.
The pH of the PkLDH solution was adjusted to be 7.5 after each of the compounds was added. Heat treatment was carried out at 55° C. for 15 minutes. As a comparative example, an LDH solution prepared without adding any compound was subjected to the same experiment. It should be noted that, unless specified otherwise, the reagents used herein were all purchased from Tokyo Chemical Industry Co., Ltd. […]

[2] = test system: lactate dehydrogenase from Pichia kudriavzevii (PkLDH); assay: Chronoamperometry with printed electrode to which PkLDH plus stabilizer was applied and dried (5 mM mPMS/PBS); conditions: added compound 50 mM, +200 mV
Procedure: An enzyme electrode was prepared using the purified PkLDH preparation obtained above and chronoamperometry was carried out. Each of the compounds was added to an enzyme solution in advance and tested whether or not a stabilizing effect of the enzyme during a drying step was exerted. LDH (1 U) solutions comprising compounds in a concentration (0.2% (w/v), 2% (w/v) and 50 mM, respectively) as described in Table 8 were each applied to a screen-printed carbon electrode C110 (manufactured by Metrohm-Dropsens) in an amount of 4 μL and dried at 40° C. for 60 minutes. The same procedure was repeated using an LDH solution without adding any one of the compounds. Each of the electrodes prepared was connected to ALS electrochemical analyzer 814D (manufactured by BAS) using a dedicated connector (DRP-CAC, manufactured by Drop Sense). Subsequently, 100 μL of a 2 mM mPMS/PBS solution was added dropwise to dissolve the dried LDH. The applied voltage was +200 mV (vs Ag/Ag+). An L-sodium lactate solution was added and a response current value 5 seconds after initiation of measurement was recorded. […] Further, in the same manner as above, a 1 U LDH solution comprising 1% polyacrylic acid was applied to a screen printed carbon electrode and dried and then a 2 mM mPMS/PBS solution (100 μL) was added dropwise to dissolve the dried LDH. Then, an L-sodium lactate solution was added such that the final concentration thereof would be 2 to 10 mM, and a response current value 5 seconds after initiation of measurement was recorded.
Chronoamperometry was carried out by changing the concentration of the compound to be added as a stabilizer and the concentration of L-sodium lactate used as a substrate. To an electrode prepared in the same manner as in the preceding Section, 100 μL of a 5 mM mPMS/PBS solution was added dropwise to dissolve the dried LDH. A voltage of +200 mV (vs Ag/Ag+) was applied. An L-sodium lactate solution was added and a response current value 5 seconds after initiation of measurement was recorded.

[3] = test system: lactate dehydrogenase from Ogataea parapolymorpha (OgLDH); assay: Thermal stability of OgLDH (residual activity ratio after heat treatment); conditions: OgLDH 2 U/mL, potassium phosphate buffer pH 7.5, 50°C for 15 minutes; for LDH stability improving effect: compound 300 mM
Procedure: as §1, §2
(§3) Stability evaluation tests were conducted to check the improvement effect of malic acid on the stability of various LDHs. […] Each of these diluted enzyme solutions (a mixture of an enzyme and L-malic acid, LDH concentration: 2 U/mL, L-malic acid concentration: 300 mM) was heated in accordance with the thermal-stability evaluation method described in Section 4. More specifically, PkLDH was treated at 55° C., whereas, CaLDH and OgLDH were treated at 50° C. for 15 minutes and then the residual activity ratio (%) was calculated, based on the activity before heating taken as 100. As a comparative example, a sample without adding any L-malic acid in the enzyme diluent was subjected to the same experiment, and the ratio of residual activity in both cases were compared.
(§4) Using the purified OgLDH preparation obtained above, the ratios of remaining activities (%) in the presence and absence of a LDH stabilizer were compared in accordance with the LDH thermal stability evaluation method described in Section 4. In this manner, a stabilizer was searched.
The pH of the LDH solution was adjusted to be 7.5 after each of the compounds was added. Heat treatment was carried out at 50° C. for 15 minutes.

[4] = test system: lactate dehydrogenase from Candida inconspicua (CaLDH); assay: Thermal stability of CaLDH (residual activity ratio after heat treatment); conditions: CaLDH 2 U/mL, potassium phosphate buffer pH 7.5, 50°C for 15 minutes; for improvement effect on the stability of LDH: compound 300 mM
Procedure: as §1, §2
as §3, with “As a comparative example, a sample without adding any L-malic acid in the enzyme diluent was subjected to the same experiment, and the ratio of residual activity in both cases were compared.” left out

[5] = target: T1, lactate dehydrogenase from Saccharomyces cereviciae (ScLDH) (Saccharomyces cerevisiae, UniProt P00175); assay: Thermal stability of ScLDH (supernatant of crushed bacterial cells); conditions: ScLDH 2 U/mL; compound 300 mM; potassium phosphate buffer pH 7.5; 40°C for 15 minutes
T1 construct: made in house; host or cells: Escherichia coli BL21 (pKK223-3-ScLDH); unpurified supernatant of crushed cells
T1 sequence (P00175 86-591): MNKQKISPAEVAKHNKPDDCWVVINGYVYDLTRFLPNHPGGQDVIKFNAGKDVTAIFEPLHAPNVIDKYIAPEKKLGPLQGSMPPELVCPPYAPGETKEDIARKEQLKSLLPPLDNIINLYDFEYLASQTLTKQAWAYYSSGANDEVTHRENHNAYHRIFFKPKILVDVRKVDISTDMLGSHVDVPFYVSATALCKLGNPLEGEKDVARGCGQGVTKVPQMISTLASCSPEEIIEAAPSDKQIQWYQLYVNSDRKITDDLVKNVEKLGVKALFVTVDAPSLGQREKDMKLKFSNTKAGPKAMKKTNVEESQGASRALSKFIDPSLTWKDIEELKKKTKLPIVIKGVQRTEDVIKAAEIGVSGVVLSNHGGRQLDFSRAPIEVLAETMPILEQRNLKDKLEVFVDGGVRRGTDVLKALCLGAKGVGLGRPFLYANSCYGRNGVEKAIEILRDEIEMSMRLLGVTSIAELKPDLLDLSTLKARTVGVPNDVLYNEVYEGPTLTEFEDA
Procedure: as §1, §2
as §4, with “supernatant of a solution comprising crushed ScLDH bacterial cells” for “purified OgLDH preparation”
The pH of the LDH solution was adjusted to be 7.5 after each of the compounds was added. Heat treatment was carried out at 40° C. for 15 minutes.

[6] = test system: lactate dehydrogenase from Pichia kudriavzevii (PkLDH); assay: Thermal stability of PkLDH in 150 mM HEPES buffer; conditions: PkLDH 2 U/mL; 150 mM HEPES buffer pH 7.5; added compound 300 mM; 55°C for 15 minutes
Procedure: as §1
as §2, with “Here, LDH activity is expressed by an enzyme (LDH) unit, and 1U is defined as the amount of the enzyme that can reduce 1 μmol DCIP per minute at 37° C. in the presence of 10 mM L-lactate.” left out

[7] = added compound 300 mM, 150 mM potassium phosphate buffer pH 7.5, 0.15% BSA, 55°C for 15 minutes

Q: For `O=C(O)C[C@@H](O)C(=O)O` [D-malic acid], which “Residual activity ratio (%)” value [1, 7] is on record?
A: 47%

Q: With `O=C(O)/C=C\C(=O)O` [Maleic acid, maleic acid] as the compound, how does the “Residual activity ratio (%)” value [1, 7] read?
A: 45%

Q: Which results are given for `O=C([O-])CC(O)C(=O)[O-].[Na+].[Na+]` [L-sodium malate]?
A: Current value 5 second later (μA), 0 mM lactate [2]: 0.43 μA; Current value 5 second later (μA), 5 mM lactate [2]: 94.4 μA

Q: Which “LDH stability improving effect” value [3] does the source give for `NCC(=O)O` [glycine] here?
A: 11%

Q: How did the “improvement effect on the stability of LDH” value [4] turn out when `OC[C@H]1O[C@H](O[C@H]2[C@H](O)[C@@H](O)C(O)O[C@@H]2CO)[C@H](O)[C@@H](O)[C@@H]1O` (mixture of isomers) [maltose monohydrate] was run?
A: 5%

Q: With `OC[C@H]1O[C@H](O[C@H]2O[C@H](CO)[C@@H](O)[C@H](O)[C@H]2O)[C@H](O)[C@@H](O)[C@@H]1O` [Trehalose dihydrate, trehalose dihydrate] as the compound, how does the “Residual activity ratio (%)” value [1, 7] read?
A: 41%

Q: For `O=C(O)/C=C/C(=O)O` [Fumaric acid, fumaric acid], which “Residual activity ratio (%)” value [1, 7] is on record?
A: 41%

Q: With `O=C(O)C[C@H](O)C(=O)O` [L-malic acid] as the compound, how does the “Residual activity ratio (%)” value [1, 7] read?
A: 80%

Q: And the “Residual activity ratio (%)” value ([1]; final concentration of malic acid 10 mM, 55°C for 15 min)?
A: 36%

Q: What about the “Residual activity ratio (%)” value ([1]; final concentration of malic acid 30 mM, 55°C for 15 min) of the same compound?
A: 44%

Q: What about the “Residual activity ratio (%)” value ([1]; final concentration of malic acid 100 mM, 55°C for 15 min) of the same compound?
A: 52%

Q: And the “Residual activity ratio (%)” value ([1]; final concentration of malic acid 500 mM, 55°C for 15 min)?
A: 90%

Q: And the “Residual activity ratio (%) CaLDH” value ([4]; added compound 300 mM)?
A: 45%

Q: And the “Residual activity ratio (%) OgLDH” value ([3]; added compound 300 mM)?
A: 88%

Q: What about the “stability improving effect on ScLDH” value [5] of the same compound?
A: 41%

Q: What about the “Residual activity ratio (%)” value [6] of the same compound?
A: 100%

Q: DL-leucine acid was tested. Which “Residual activity ratio (%)” value [1, 7] did it give?
A: 92%

Q: How did the “Current value 5 second later (μA), 0 mM lactate” value [2] turn out when `O[C@H]1[C@H](O)[C@@H](O)[C@H](O)[C@@H](O)[C@H]1O` [myo-inositol] was run?
A: 0.23 μA

Q: What about the “Current value 5 second later (μA), 5 mM lactate” value [2] of the same compound?
A: 104.4 μA

Q: How did the “Residual activity ratio (%)” value [1, 7] turn out when `O=C([O-])CC(O)(CC(=O)[O-])C(=O)[O-].[Na+].[Na+].[Na+]` [Sodium citrate, sodium citrate] was run?
A: 42%

Q: With `O=C(O)CN(CCN(CC(=O)O)CC(=O)O)CC(=O)O` [ethylenediaminetetraacetic acid] as the compound, how does the “improvement effect on the stability of LDH” value [4] read?
A: 56%

Q: Which “Residual activity ratio (%)” value [1, 7] does the source give for `O=C(O)CC(=O)C(=O)O` [Oxaloacetic acid, oxaloacetic acid] here?
A: 45%

Q: `O=S(=O)([O-])[O-].[Na+].[Na+]` [Sodium sulfate, sodium sulfate] was tested. Which “Residual activity ratio (%)” value [1, 7] did it give?
A: 50%

Q: For `O=C(O)C(O)Cc1ccccc1` (racemic) [DL-phenyllactic acid, DL-3-phenyllactic acid], which “Residual activity ratio (%)” value [1, 7] is on record?
A: 87%

Q: Which “Residual activity ratio (%)” value [1, 7] does the source give for `O=C(O)CCC(=O)O` [Succinic acid, succinic acid] here?
A: 54%

Q: With `Cl.NCCCC[C@H](N)C(=O)O` [L-lysine hydrochloride] as the compound, how does the “LDH stability improving effect” value [3] read?
A: 66%

Q: Which “Residual activity ratio (%)” value [1, 7] does the source give for `OC[C@H]1O[C@@](CO)(O[C@H]2O[C@H](CO)[C@@H](O)[C@H](O)[C@H]2O)[C@@H](O)[C@@H]1O` [Sucrose, sucrose] here?
A: 42%

Q: Which “Residual activity ratio (%)” value [1, 7] does the source give for `N.N.O=S(=O)(O)O` [Ammonium sulfate, ammonium sulfate] here?
A: 54%

Q: What about the “stability improving effect on ScLDH” value [5] of the same compound?
A: 24%

Q: With `O=C([O-])[C@H](O)[C@@H](O)[C@H](O)[C@H](O)CO.[Na+]` [Sodium gluconate, sodium gluconate] as the compound, how does the “Residual activity ratio (%)” value [1, 7] read?
A: 57%

Q: `N[C@@H](Cc1c[nH]cn1)C(=O)O` [L-histidine] was tested. Which “LDH stability improving effect” value [3] did it give?
A: 27%

Q: For `N[C@@H](CC(=O)O)C(=O)[O-].[Na+]` [Sodium aspartate, L-sodium aspartate], which “Residual activity ratio (%)” value [1, 7] is on record?
A: 64%
